Test results from patent publication US20190328869A1, “IMMUNOTHERAPEUTIC PRODUCT AND MDSC MODULATOR COMBINATION THERAPY” (Transgene SA, priority 2016, published 2019).

Tested on: HBV DNA (AAV2/8-HBV)
Experiment: Serum HBV DNA (viral load) by qPCR in HBV-persistent mice
Assay type: in vivo, C57BL/6J mice
Details: sildenafil only 5, 20 or 80 mg/kg/day (groups b to d), over the experiment
Description: Graph A illustrates the median level of HBsAg determined in the serum of groups of 10 mice (groups a to h) treated with sildenafil at 5 mg/kg/day (group b), at 20 mg/kg/day (group c), or at 80 mg/kg/day (group d) alone, or with AdTG18201 (group e) alone or with a combination of AdTG18201 and sildenafil (at 5, 20, or 80 mg/kg/day, groups f, g and h, respectively). The control group a is untreated. The Y-axis indicates the median HBsAg level (ng/mL) for each group and the X-axis the time (number of days post-AAV2/8-HBV injection). Graph B illustrates the median level of HBV DNA determined in the serum of the same groups of mice by PCR. […]
The HBV persistent mice used in the study were described by Dion et al. (2013, J Virol, 87(10):5554-63). […] This allows the analysis of HBV-specific viral parameters (HBsAg, HBeAg, HBcAg and viremia) as well as immunological read-outs (ICS, ELISpot or humoral immune responses). […]
HBV DNA copy number was determined in samples using the PrimerDesign™ Genesig Advanced Kit for Hepatitis B (ref. Path-HBV, PrimerDesign) and the 7500 real time system from Applied Biosystems. Data were analyzed using the 7500 System SDS software v2.0.6. […]
The Quantitect Multiplex PCR kit (ref. 204545, Qiagen) was used to carry out the qPCR reactions. […]
The limit of quantification (LOQ) was 100 DNA copies per reaction and the limit of detection (LOD) was 10 copies per reaction. […]

`CCCc1nn(C)c2c(=O)nc(-c3cc(S(=O)(=O)N4CCN(C)CC4)ccc3OCC)[nH]c12` [sildenafil, 1-[[3-(4,7-dihydro-1-methyl-7-oxo-3-propyl-1H-pyrazolo[4,3-d]pyrimidin-5-yl)-4-ethoxyphenyl]sulfonyl]-4-methylpiperazine] was tested, and the “median level of viral DNA” value was “around 10^5 copies/mL serum”.
